Experimental data taken from publication PMC6318801 (European journal of medicinal chemistry, 2018).
Structures can show the parent of a compound that is named as a salt. Where two headings read alike, the source gives them in different places.

Tests used:
IDO1 = IDO1 (Homo sapiens, UniProt P14902); experiment: Enzyme-based IDO1 inhibition assay; conditions: for IDO1 % inhibition: isolated enzyme, 100 μM inhibitor
[1] = biological target: human TDO expressed exogenously in T-Rex cells (Homo sapiens, UniProt P48775); experiment: Cell-based TDO inhibition assay
Chain of human TDO expressed exogenously in T-Rex cells (P48775 whole entry): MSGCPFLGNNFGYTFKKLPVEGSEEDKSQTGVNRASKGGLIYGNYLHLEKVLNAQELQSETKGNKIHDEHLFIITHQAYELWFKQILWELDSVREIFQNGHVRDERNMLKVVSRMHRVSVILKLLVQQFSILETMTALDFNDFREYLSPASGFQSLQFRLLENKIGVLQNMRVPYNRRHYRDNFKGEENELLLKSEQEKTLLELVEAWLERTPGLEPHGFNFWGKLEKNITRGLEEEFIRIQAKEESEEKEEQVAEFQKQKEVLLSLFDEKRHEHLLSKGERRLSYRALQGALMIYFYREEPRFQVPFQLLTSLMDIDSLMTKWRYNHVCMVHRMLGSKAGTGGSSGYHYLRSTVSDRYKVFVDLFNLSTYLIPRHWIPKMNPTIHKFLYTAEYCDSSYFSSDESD

[2] = biological target: human IDO1 expressed endogenously in HeLa cells (Homo sapiens, UniProt P14902); experiment: Cell-based IDO1 inhibition assay
Chain of human IDO1 expressed endogenously in HeLa cells (P14902 whole entry): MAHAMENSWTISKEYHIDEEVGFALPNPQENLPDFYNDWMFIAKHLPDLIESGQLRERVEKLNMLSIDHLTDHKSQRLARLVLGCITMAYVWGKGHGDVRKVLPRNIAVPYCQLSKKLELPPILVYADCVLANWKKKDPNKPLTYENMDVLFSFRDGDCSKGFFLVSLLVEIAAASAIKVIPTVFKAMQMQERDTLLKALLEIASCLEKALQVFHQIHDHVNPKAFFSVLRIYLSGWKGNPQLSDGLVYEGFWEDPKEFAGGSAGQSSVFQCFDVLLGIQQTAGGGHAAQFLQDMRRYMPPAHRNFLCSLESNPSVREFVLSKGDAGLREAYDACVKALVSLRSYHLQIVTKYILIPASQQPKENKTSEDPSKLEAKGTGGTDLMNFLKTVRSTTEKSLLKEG

[3] = biological target: T1, mouse IDO2 expressed exogenously in T-Rex cells (Mus musculus, UniProt Q8R0V5); experiment: Cell-based IDO2 inhibition assay; conditions: for Greater potency for IDO1 and TDO over IDO2 (cell-based): cell-based IC50 ratio
T1 sequence (Q8R0V5 1-405): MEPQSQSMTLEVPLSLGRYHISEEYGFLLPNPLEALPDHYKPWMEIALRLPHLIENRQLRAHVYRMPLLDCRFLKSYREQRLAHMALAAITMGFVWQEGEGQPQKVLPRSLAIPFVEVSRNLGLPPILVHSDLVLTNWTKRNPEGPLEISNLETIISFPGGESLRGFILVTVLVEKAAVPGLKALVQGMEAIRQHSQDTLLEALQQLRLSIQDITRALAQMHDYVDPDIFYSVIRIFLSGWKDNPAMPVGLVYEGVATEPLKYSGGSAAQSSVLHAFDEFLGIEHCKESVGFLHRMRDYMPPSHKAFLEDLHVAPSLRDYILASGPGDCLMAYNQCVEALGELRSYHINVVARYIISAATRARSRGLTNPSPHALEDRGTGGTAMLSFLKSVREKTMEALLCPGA

TDO = TDO (Homo sapiens, UniProt P48775); experiment: Enzyme-based TDO inhibition assay
Chain of TDO (P48775 whole entry, species assumed): as the sequence (P48775 whole entry) above

IDO2 = IDO2 (Homo sapiens, UniProt Q6ZQW0); experiment: Enzyme-based IDO2 inhibition assay
Chain of IDO2 (Q6ZQW0 whole entry): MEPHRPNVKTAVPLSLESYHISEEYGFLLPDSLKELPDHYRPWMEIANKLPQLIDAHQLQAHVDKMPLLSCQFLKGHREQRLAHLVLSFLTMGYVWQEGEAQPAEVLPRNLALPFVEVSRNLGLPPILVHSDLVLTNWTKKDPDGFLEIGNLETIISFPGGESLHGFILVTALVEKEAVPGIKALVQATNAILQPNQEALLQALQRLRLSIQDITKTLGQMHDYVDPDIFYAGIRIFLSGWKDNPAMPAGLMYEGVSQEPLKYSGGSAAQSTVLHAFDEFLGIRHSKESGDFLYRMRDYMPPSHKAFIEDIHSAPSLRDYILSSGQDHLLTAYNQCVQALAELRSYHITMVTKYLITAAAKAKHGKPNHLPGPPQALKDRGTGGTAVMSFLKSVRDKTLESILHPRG

[4] = Impact of human serum protein binding on inhibitory activity; type: cell-based; conditions: Figure S4
[5] = read-out: TDO IC50 (cell-based), human TDO in T-Rex cells, racemic mixtures
[6] = read-out: IDO1 IC50 (cell-based), HeLa cells, racemic mixtures
[7] = read-out: IDO2 IC50 (cell-based), mouse IDO2 in T-Rex cells, racemic mixtures
[8] = isolated enzyme, 100 μM inhibitor

Chain of IDO1 (P14902 whole entry, species assumed): as the sequence (P14902 whole entry) above

O-(3-Trifluoromethyl-α-phenylbenzyl)hydroxylamine hydrochloride [Compound 26]
IDO1 % inhibition (IDO1): 18%
IC50 [1, 5]: 13.6 µM
IC50 [2, 6]: 1.73 µM
IC50 [3, 7]: 24.7 µM
IC50 (TDO; read-out: TDO IC50, isolated enzyme, racemic mixtures): 12 µM

NOC(c1ccccc1)c1ccc(O)cc1 (stereo not drawn) [Compound 25, O-(4-Hydroxy-α-phenyl)-benzyl hydroxylamine hydrochloride]
inhibition at 200 µM (IDO1; read-out: IDO1 % inhibition, isolated enzyme, 200 μM inhibitor): 18%

Cl.NOC(c1ccccc1)c1ccccc1F (stereo not drawn) [Compound 16, O-(2-Fluoro-α-phenylbenzyl)hydroxylamine hydrochloride]
Greater potency for IDO1 and TDO over IDO2 (cell-based) [3]: roughly 10 fold

O-(2-Methoxy-α-phenylbenzyl)hydroxylamine hydrochloride [Compound 20]
IC50 [1, 5]: 48.8 µM
IC50 [2, 6]: 1.11 µM
IDO2 % inhibition (IDO2; [8]): 80.0%
IC50 [3, 7]: 16.5 µM

Cl.NOC(CCCC(=O)Nc1ccccc1)c1cccc(Cl)c1 (centres unmarked) [Compound 5, 5-(Aminooxy)-5-(3-chlorophenyl)-N-phenylpentanamide hydrochlorie]
Selectivity for IDO1 over IDO2 and TDO (cell-based) ([2]; cell-based IC50 ratio): more than 20 fold

Cl.NOC(c1ccccc1)c1ccc(Cl)cc1Cl (centres unmarked) [Compound 6, O-(2,4-Dichlorophenylbenzyl)hydroxylamine hydrochloride]
Effect of human serum protein binding on inhibitory activity [4]: substantial reduction in inhibitory activity

O-[4-Chloro-α-(2’-methyl,4’-methoxyphenyl)benzenemethyl]hydroxylamine hydrochloride [Compound 23]
IDO1 % inhibition (IDO1): 85%
IC50 [1, 5]: 19.1 µM
IC50 [2, 6]: 1.76 µM
IC50 [3, 7]: 8.77 µM
TDO % inhibition (TDO; [8]): 66%

Cl.NOC(c1ccccc1)c1cc(Cl)cc(Cl)c1 (stereo not drawn) [Compound 2, O-(3,5-Dichloro-α-phenylbenzyl)hydroxylamine hydrochloride]
Effect of human serum protein binding on inhibitory activity [4]: relatively unaffected

NOC(CCc1ccccc1)c1ccccc1 (centres unmarked) [Compound 17, O-(1,3-diphenylpropyl)hydroxylamine hydrochloride]
IC50 (IDO1): 16 µM
IC50 [1]: 49.7 µM
IC50 [2]: 14.7 µM
inhibition at 100 µM (IDO2; read-out: IDO2 % inhibition): 76%
IC50 [3]: 19.3 µM
inhibition at 100 µM (TDO; read-out: TDO % inhibition): 89.9%

Cl.NOC(c1ccccc1)c1ccsc1 (centres unmarked) [Compound 21, O-(phenyl(thiophen-3-yl)methyl)hydroxylamine hydrochloride]
Greater potency for IDO1 and TDO over IDO2 (cell-based) [3]: roughly 10 fold
